Columns and labels:
type II sPLA2 = target: T1, type II sPLA2 (Homo sapiens, UniProt P14555); assay: Inhibition test of human secretory phospholipase A2, chromogenic assay, type II enzyme; format: biochemical; details: Inhibitory activity of type II sPLA2
T1 sequence (P14555 21-144): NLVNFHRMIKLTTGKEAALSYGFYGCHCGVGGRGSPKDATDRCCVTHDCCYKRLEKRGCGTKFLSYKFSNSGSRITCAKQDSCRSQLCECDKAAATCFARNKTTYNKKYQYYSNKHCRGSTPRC
Excerpt: In order to identify and evaluate an inhibitor of recombinant human secretory phospholipase A2, the following chromogenic assay is utilized. The assay herein has been applied for high volume screening wherein 96 well microtiterplate is used. A general explanation for such assay is described in “Analysis of Human Synovial Fluid Phospholipase A2 on Short Chain Phosphatidylcholine-Mixed Micelles: Development of a Spectrophotometric Assay Suitable for a Microtiterplate Reader” (Analytical Biochemistry, 204, pp 190-197, 1992 by Laure. J. Reynolds. Lori L. Hughes and Edward A. Dennis: the disclosure of which is incorporated herein for reference.
Type II enzyme: 1 mg of sPLA2 is dissolved in 1 ml of an enzyme buffer. Thereafter, the solution is maintained at 4° C. In the assay, 5 μl of the solution is diluted with 1995 μl of the reaction buffer to be used.
1) 0.106 ml of the substrate solution is put in a centrifugal tube, and nitrogen gas is jetted to remove the solvent. 0.54 ml of Triton-X 100 is added thereto, the mixture is stirred, thereafter it is sonified in a bath type sonification to dissolve. To the resulting product are added 17.8 ml of the reaction buffer and 0.46 ml of DTNB, and 0.18 ml each of the admixture is poured to wells of the 96 well microtiterplate.
2) 10 μl of a test compound (or solvent blank) are added in accordance with alignment of plates which has been previously set.
3) Incubation is effected at 40° C. for 15 minutes.
4) 90 ng/well in case of human type I enzyme, 50 ng/well in case of human type II enzyme, 40 μl/well in case of human type V enzyme, 15 μl/well in case of human type X enzyme were reacted.
5) Changes in absorbancy for 30 minutes for humane type I, type II, and type X enzyme and for 45 min for human type V enzyme, are measured by a plate reader, and inhibition activity was calculated (OD: 405 nm).
6) IC50 was determined by plotting log concentration with respect to inhibition values within 10% to 90% inhibiting range.

Structure (SMILES)	melting point	IC50 (type II sPLA2)
COC(=O)COc1cccn2c3c(c(C(=O)C(N)=O)c12)CCCC3c1ccccc1 (stereo not drawn) [Compound I-3]	198 to 199 °C	1590 nM
COC(=O)COc1cccn2c1c(C(=O)C(N)=O)c1scc(-c3ccccc3)c12 [Compound I-11]	–	5680 nM
NC(=O)C(=O)c1c2c(n3cccc(OCC(=O)O)c13)C(c1ccccc1)CCC2 (stereo not drawn) [Compound I-4]	–	54 nM
NC(=O)C(=O)c1c2c(n3ccnc(OCC(=O)O)c13)C(c1ccccc1)=CCC2 [Compound I-14]	–	34 nM
COC(=O)COc1cccn2c3c(c(C(=O)C(N)=O)c12)CCC=C3c1ccccc1 [Compound I-1]	225 to 227 °C (dec.)	789 nM
NC(=O)C(=O)c1c2c(n3cccc(OCC(=O)O)c13)C(c1ccccc1)=CCC2 [Compound I-2]	228 to 230 °C (dec.)	45 nM
CC(=O)N1CCc2c(C(=O)C(N)=O)c3c(OCC(=O)O)cccn3c2C1c1ccccc1 (stereo not drawn) [Compound I-6]	–	4570 nM
NC(=O)C(=O)c1c2c(n3cccc(OCC(=O)O)c13)C(c1ccccc1)N(C(=O)C(F)(F)F)CC2 (stereo not drawn) [Compound I-8]	–	262 nM
NC(=O)C(=O)c1c2scc(-c3ccccc3)c2n2cccc(OCC(=O)O)c12 [Compound I-12]	–	178 nM

From patent US6703385B1, “Tricyclic compounds having sPLA2-inhibitory activities” (Shionogi & Co., Ltd., priority 1999, dated 2004)
